The source of these data is patent US9886545B2, “Interrogatory cell-based assays and uses thereof” (Berg LLC, priority 2011, dated 2018).

One data set deals with FASN (Mus musculus, UniProt P19096). The conditions noted are these: Loftus et al 2000; cited from earlier work.
The subject of data set [1] is Bcl2 in normal fibroblast. Description: Bcl2 level in normal fibroblast with VEGF co-administration. Format: cell-based. An excerpt:
(§1) The term “Multidimensional Intracellular Molecule (MIM)”, is an isolated version or synthetically produced version of an endogenous molecule that is naturally produced by the body and/or is present in at least one cell of a human. A MIM is capable of entering a cell and the entry into the cell includes complete or partial entry into the cell as long as the biologically active portion of the molecule wholly enters the cell. MIMs are capable of inducing a signal transduction and/or gene expression mechanism within a cell. MIMs are multidimensional because the molecules have both a therapeutic and a carrier, e.g., drug delivery, effect. MIMs also are multidimensional because the molecules act one way in a disease state and a different way in a normal state. For example, in the case of CoQ-10, administration of CoQ-10 to a melanoma cell in the presence of VEGF leads to a decreased level of Bcl2 which, in turn, leads to a decreased oncogenic potential for the melanoma cell. In contrast, in a normal fibroblast, co-administration of CoQ-10 and VEFG has no effect on the levels of Bcl2.

Another data set deals with Bcl2 in melanoma cell. The experiment in a line: Bcl2 level in melanoma cell in the presence of VEGF. It counts as cell-based.
From the text: as §1

In data set [2] the test system is LDHA expression in HepG2 cells. The experiment in a line: Wet lab validation of LDHA expression in HepG2 cells. Conditions: 50 uM or 100 uM CoQ10 for 24 or 48 hours. It counts as cell-based. As to the method: Protein accession number P00338 is LDHA. Wet lab validation of proteomics data were performed for LDHA expression in HepG2 cells (see FIG. 20).
The test system of data set [3] is human mitochondrial energy metabolism genes. The experiment in a line: Transcriptional profiling of diabetic cardiomyocytes. Format: cell-based. The conditions noted are these: diabetic cardiomyocytes treated with diabetic drug plus rescue molecule (T+R) vs untreated (UT). The procedure: Human cardiomyocytes were subject to conditions simulating an diabetic environment experienced by the disease-relevant cells in vivo. Specifically, the cells were exposed to hyperglycemic conditions and hyperlipidemia conditions. The hyperglycemic condition was induced by culturing cells in media containing 22 mM glucose. The hyperlipidemia condition was induced by culturing the cells in media containing 1 mM L-carnitine, 0.7 mM Oleic acid and 0.7 mM Linoleic acid. […]
iProfiling of changes in total cellular protein expression by quantitative proteomics was performed for cell and media samples collected for each condition and with each “environmental perturbation”, i.e, diabetic drug treatment, Coenzyme Q10 treatment or both, using the techniques described above in the detailed description. […] Following data collection (Ct), the final fold change over control was determined using the δCt method as outlined in manufacturer's protocol. […] Functional assays such as Oxygen consumption rate OCR were measured by employing the Seahorse analyzer essentially as recommended by the manufacturer. OCR was recorded by the electrodes in a 7 μl chamber created with the cartridge pushing against the seahorse culture plate. […]

Sequence of FASN (P19096 whole entry): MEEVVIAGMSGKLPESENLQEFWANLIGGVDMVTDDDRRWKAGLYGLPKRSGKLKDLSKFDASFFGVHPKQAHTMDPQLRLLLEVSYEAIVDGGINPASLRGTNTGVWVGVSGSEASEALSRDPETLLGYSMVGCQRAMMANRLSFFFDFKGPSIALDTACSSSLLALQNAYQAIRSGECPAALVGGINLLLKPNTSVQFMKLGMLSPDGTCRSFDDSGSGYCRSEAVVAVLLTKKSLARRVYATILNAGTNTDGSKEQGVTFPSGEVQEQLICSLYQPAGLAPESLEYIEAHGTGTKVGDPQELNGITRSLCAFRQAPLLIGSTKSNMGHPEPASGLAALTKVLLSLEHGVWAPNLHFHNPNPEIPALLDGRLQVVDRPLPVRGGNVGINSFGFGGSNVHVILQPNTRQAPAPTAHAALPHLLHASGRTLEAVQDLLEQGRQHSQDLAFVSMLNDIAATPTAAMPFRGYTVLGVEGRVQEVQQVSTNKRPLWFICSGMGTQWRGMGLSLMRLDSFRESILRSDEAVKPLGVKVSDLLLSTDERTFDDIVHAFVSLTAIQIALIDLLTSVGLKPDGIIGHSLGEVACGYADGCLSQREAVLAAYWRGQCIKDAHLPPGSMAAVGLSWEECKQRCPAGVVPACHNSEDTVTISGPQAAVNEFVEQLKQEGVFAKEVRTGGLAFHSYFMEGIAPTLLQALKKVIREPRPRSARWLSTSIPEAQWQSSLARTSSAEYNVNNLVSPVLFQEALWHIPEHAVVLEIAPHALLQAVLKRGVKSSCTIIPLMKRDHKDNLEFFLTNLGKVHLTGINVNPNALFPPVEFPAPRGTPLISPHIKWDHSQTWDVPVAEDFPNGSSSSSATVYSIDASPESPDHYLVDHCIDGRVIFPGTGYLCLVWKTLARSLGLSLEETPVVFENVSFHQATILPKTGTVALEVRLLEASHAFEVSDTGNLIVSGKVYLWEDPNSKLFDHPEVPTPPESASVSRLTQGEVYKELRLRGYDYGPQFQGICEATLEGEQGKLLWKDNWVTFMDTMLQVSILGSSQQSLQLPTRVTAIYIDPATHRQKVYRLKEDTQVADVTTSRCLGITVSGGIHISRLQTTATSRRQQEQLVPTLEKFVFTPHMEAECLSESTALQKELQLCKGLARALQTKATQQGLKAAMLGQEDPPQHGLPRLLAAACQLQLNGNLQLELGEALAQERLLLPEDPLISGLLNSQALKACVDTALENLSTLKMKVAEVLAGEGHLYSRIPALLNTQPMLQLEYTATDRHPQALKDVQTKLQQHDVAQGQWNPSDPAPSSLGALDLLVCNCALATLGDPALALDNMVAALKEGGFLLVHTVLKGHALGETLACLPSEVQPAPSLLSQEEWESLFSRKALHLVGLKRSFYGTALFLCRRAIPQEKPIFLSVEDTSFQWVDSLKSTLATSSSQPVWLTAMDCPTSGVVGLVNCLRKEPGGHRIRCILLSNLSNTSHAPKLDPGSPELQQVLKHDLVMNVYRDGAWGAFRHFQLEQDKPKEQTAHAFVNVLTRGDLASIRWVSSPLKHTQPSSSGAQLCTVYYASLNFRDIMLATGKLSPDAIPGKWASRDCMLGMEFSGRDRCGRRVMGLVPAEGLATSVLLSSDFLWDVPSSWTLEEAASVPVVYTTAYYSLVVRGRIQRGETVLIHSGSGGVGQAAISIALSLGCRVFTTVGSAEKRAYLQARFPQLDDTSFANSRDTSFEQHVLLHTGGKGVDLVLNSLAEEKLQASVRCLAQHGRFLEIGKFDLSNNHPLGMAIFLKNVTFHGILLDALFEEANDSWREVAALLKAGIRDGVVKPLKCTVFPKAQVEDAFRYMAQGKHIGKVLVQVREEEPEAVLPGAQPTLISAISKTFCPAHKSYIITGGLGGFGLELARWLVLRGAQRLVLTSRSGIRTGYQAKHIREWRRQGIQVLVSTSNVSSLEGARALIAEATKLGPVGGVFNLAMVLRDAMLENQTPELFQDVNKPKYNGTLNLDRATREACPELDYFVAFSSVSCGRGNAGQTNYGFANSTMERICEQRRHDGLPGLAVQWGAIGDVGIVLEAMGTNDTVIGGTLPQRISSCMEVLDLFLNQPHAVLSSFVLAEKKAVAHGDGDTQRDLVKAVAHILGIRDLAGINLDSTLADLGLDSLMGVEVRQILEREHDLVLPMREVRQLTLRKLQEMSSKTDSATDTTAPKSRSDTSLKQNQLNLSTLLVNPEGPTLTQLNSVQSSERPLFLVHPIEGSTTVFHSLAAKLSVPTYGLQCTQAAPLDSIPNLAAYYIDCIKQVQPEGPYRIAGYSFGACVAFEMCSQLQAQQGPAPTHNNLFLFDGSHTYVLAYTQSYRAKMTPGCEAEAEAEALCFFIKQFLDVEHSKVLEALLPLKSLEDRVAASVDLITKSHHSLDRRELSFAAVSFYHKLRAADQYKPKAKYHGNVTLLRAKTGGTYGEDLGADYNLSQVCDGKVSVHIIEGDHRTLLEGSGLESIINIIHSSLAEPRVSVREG

On to `C=C1C(=O)OC(CCCCCCCC)C1C(=O)O` (stereo not drawn) [C75], for which, on FASN, the food intake result is “reducing” and the weight loss result is reported as “effectuate weight loss”.
`C/C=C/C/C=C/CCC(=O)[C@H]1O[C@H]1C(N)=O` [Cerulenin]: at FASN, the food intake result is “reducing” and the weight loss result is recorded as “effectuate weight loss”.
For `COC1=C(OC)C(=O)C(C/C=C(\C)CC/C=C(\C)CC/C=C(\C)CC/C=C(\C)CC/C=C(\C)CC/C=C(\C)CC/C=C(\C)CC/C=C(\C)CC/C=C(\C)CCC=C(C)C)=C(C)C1=O` [Coenzyme Q10], the “levels of Bcl2” value in data set [1] is recorded as “no effect”. Further, the “level of Bcl2” value with Bcl2 in melanoma cell is on record as “decreased”. Besides, the LDHA expression levels result in data set [2] was “decreased”. Besides, the entries for the “gene expression and transcription of mitochondrial energy metabolism genes, rescue” value in data set [3] and in data set [3] (listed as R) were “normalize” and “normalizes”, respectively.
